From patent US20240245711A1, “A 19-NOR C3,3-DISUBSTITUTED C21-N-PYRAZOLYL STEROID FOR THE TREATMENT OF MAJOR DEPRESSIVE DISORDER” (Sage Therapeutics, Inc., priority 2021, published 2024)
Several values for one entry are separate records, joined by “and”; a condition that tells them apart may be missing. Equal values may be shown once.

System: adult subjects with Major Depressive Disorder
Assay: Phase 3 open-label 1-year study: need for re-treatment (number of and time to re-treatments)
Type: in vivo, human
Conditions: for Subjects with No re-treatment (Cycle 1), n (%) / Subjects with Only 1 re-treatment (Cycle 2), n (%) / Subjects with Only 2 re-treatment (Cycle 3), n (%) / Subjects with Only 3 re-treatment (Cycle 4), n (%) / Subjects with Only 4 re-treatment (Cycle 5), n (%): FAS; for Time to re-treatment, Mean (SD): Low Dose Cohort (FAS)
Excerpt: Secondary Objective: To assess the need for re-treatment with Compound (1) following initial treatment in adults with MDD currently experiencing an MDE over a 1-year period, and to assess the response of initial treatment and re-treatment(s) with Compound (1) following an initial 2-week treatment period in adults with MDD currently experiencing an MDE over a 1-year period.
Secondary Endpoints: The need for re-treatment with Compound (1) as assessed by: time to first re-treatment (Kaplan-Meier curves), number of subjects achieving the requirements for re-treatment, number of re-treatment cycles for each subject, the response of initial treatment and/or re-treatment as assessed by: change from baseline in the 17-item Hamilton Rating Scale for Depression (HAM-D) total score at the end of each 14-day treatment (initial and/or re-treatment) period, HAM-D response at the end of each 14-day treatment (initial and/or re-treatment) period, defined as a ≥50% reduction in HAM-D score from baseline, HAM-D remission at the end of each 14-day treatment (initial and/or re-treatment) period, defined as HAM-D total score≤7, Clinical Global Impression-Improvement (CGI-I) response, defined as “much improved” or “very much improved”, at the end of each 14-day treatment (initial and/or re-treatment) period, change from baseline in Clinical Global Impression-Severity (CGI-S) score at the end of each 14-day treatment (initial and/or re-treatment) period.
Subjects who continued in the Observation Period were monitored remotely via PHQ-9 assessment every two weeks. If PHQ-9 score was >=10 at any assessment, PHQ-9 assessment was switch to every week until the score came down below 10 or the subject was dosed with Compound (1) in a subsequent cycle, whichever was earlier. A subject was to come back to the site for HAM-D assessment within a week of PHQ-9 score >=10; if the HAM-D total score >=20 and at least 56 days had elapsed since the last dose of Compound (1), another dosing cycle of Compound (1) were to start. If any of these criteria were not met, the subject couldn't be treated with Compound (1) at that time. Without the trigger of PHQ-9>=10 the subject was to have a clinic visit every 8 weeks. A subject could have at most 5 cycles of treatment within a year. FIG. 2 is a depiction of the eligibility criteria of the study.
The cohorts pertaining to the different doses that the subjects received were defined as following: • 50 mg cohort: This cohort includes subjects who have initiated treatment with 50 mg and received re-treatment with 50 mg only. • 30 mg cohort: This cohort includes subjects who have initiated treatment with 30 mg regardless of the dose they have received in re-treatments. • Low dose cohort: This cohort includes subjects who have initiated treatment with 30 mg and received re-treatment with 30 mg only. • Dose switch cohort: This cohort includes subjects who have received initial treatment with 30 mg and at least one subsequent re-treatment with 50 mg. • Study Period X: starts on the date of the first dose of Compound (1) in cycle X and goes up to one day prior to the first dose of the next cycle. In some embodiments, X is any number from 1 to 5. • Treatment Period X: starts on the date of the first dose of Compound (1) in cycle X and goes up to one day after the last dose in cycle X. In some embodiments, X is any number from 1 to 5. • Treatment Cycle X: starts on the date of the first dose of Compound (1) in cycle X and goes up to 14 days after the last dose in cycle X. The treatment cycles may be denoted as C1-C5. • Observation period X: starts the day after Treatment Cycle X ends and goes up to one day prior to the start of next treatment cycle. In some embodiments, X is any number from 1 to 5.
Analysis Sets: The safety set was defined as all subjects who were administered study drug. The period-specific safety set includes subjects in the safety set who were administered study drug in the corresponding treatment cycle. […]

[1] = ATD Use at Baseline = No, 30 mg Cohort (N = 280)
[2] = ATD Use at Baseline = No, 50 mg Cohort (N = 86)
[3] = ATD Use at Baseline = Yes, 30 mg Cohort (N = 209)
[4] = ATD Use at Baseline = Yes, 50 mg Cohort (N = 60)

C[C@@]1(O)CC[C@H]2[C@H](CC[C@@H]3[C@@H]2CC[C@]2(C)[C@@H](C(=O)Cn4cc(C#N)cn4)CC[C@@H]32)C1 [Compound (1), 1-(2-((3R,5R,8R,9R,10S,13S,14S,17S)-3-hydroxy-3,13-dimethylhexadecahydro-1H-cyclopenta[a]phenanthren-17-yl)-2-oxoethyl)-1H-pyrazole-4-carbonitrile]
Time to re-treatment since last dose in previous cycle, Median (Cycle 5, Dose Switch (FAS)): 58 days | Time to re-treatment since last dose in previous cycle, Min - Max (Cycle 5, Dose Switch (FAS)): 57 to 79 days | n/N: FAS subjects eligible and dosed in Cycle X / eligible for dosing in Cycle X (Cycle 5, Low Dose): 20/34 | Time to re-treatment since last dose in previous cycle, Mean (SD) (Cycle 5, Low Dose (FAS)): 63.2 (7.42) Days | Time to re-treatment since last dose in previous cycle, Median (Cycle 5, Low Dose (FAS)): 60.5 days | Time to re-treatment since last dose in previous cycle, Min - Max (Cycle 5, Low Dose (FAS)): 58 to 86 days | Dosed in at least 1 re-treatment cycle, % of eligible (Dose Switch (80 eligible)): 80 (100%) | Qualified to be retreated in at least 1 more cycle (HAM-D total score >= 20), % of eligible (Dose Switch (80 eligible)): 80 (100%) | Subjects with No re-treatment (Cycle 1), n (%) of FAS (Dose Switch (N = 80)): 0% | Subjects with Only 1 re-treatment (Cycle 2), n (%) of FAS (Dose Switch (N = 80)): 9 (11.3%) | Subjects with Only 2 re-treatment (Cycle 3), n (%) of FAS (Dose Switch (N = 80)): 18 (22.5%) | Subjects with Only 3 re-treatment (Cycle 4), n (%) of FAS (Dose Switch (N = 80)): 30 (37.5%) | Subjects with Only 4 re-treatment (Cycle 5), n (%) of FAS (Dose Switch (N = 80)): 23 (28.8%) | Average (range) number of re-treatments per subject over 1-year follow-up (Dose Switch Cohort): 2.8 (1-4) | FAS Subjects Dosed in C2, n (%) of FAS (Dose Switch Cohort): 80 (100%) | FAS Subjects dosed in C3, n (%) of FAS (Dose Switch Cohort): 71 (88.8%) | FAS Subjects dosed in C4, n (%) of FAS (Dose Switch Cohort): 53 (66.3%) | FAS Subjects dosed in C5, n (%) of FAS (Dose Switch Cohort): 23 (28.8%) | Subjects with No re-treatment (Cycle 1), n (%) [1]: 114 (40.7%) | Subjects with Only 1 re-treatment (Cycle 2), n (%) [1]: 80 (28.6%) | Subjects with Only 2 re-treatment (Cycle 3), n (%) [1]: 31 (11.1%) | Subjects with Only 3 re-treatment (Cycle 4), n (%) [1]: 33 (11.8%) | Subjects with Only 4 re-treatment (Cycle 5), n (%) [1]: 22 (7.9%) | Subjects with No re-treatment (Cycle 1), n (%) [2]: 72 (83.7%) | Subjects with Only 1 re-treatment (Cycle 2), n (%) [2]: 13 (15.1%) | Subjects with Only 2 re-treatment (Cycle 3), n (%) [2]: 1 (1.2%) | Subjects with Only 3 re-treatment (Cycle 4), n (%) [2]: 0% | Subjects with Only 4 re-treatment (Cycle 5), n (%) [2]: 0% | Subjects with No re-treatment (Cycle 1), n (%) [3]: 96 (45.9%) | Subjects with Only 1 re-treatment (Cycle 2), n (%) [3]: 45 (21.5%) | Subjects with Only 2 re-treatment (Cycle 3), n (%) [3]: 27 (12.9%) | Subjects with Only 3 re-treatment (Cycle 4), n (%) [3]: 20 (9.6%) | Subjects with Only 4 re-treatment (Cycle 5), n (%) [3]: 21 (10.0%) | Subjects with No re-treatment (Cycle 1), n (%) [4]: 48 (80.0%) | Subjects with Only 1 re-treatment (Cycle 2), n (%) [4]: 12 (20.0%) | Subjects with Only 2 re-treatment (Cycle 3), n (%) [4]: 0% | Dosed in at least 1 re-treatment cycle, % of eligible (Low Dose (199 of 392 eligible)): 199 0.8%) and 199 (0.8%) | Qualified to be retreated in at least 1 more cycle (HAM-D total score >= 20), % of eligible (Low Dose (392 eligible)): 225 (57.4%) | Subjects with No re-treatment (Cycle 1), n (%) of FAS (Low Dose (N = 409)): 210 (51.3%) | Subjects with Only 1 re-treatment (Cycle 2), n (%) of FAS (Low Dose (N = 409)): 116 (28.4%) | Subjects with Only 2 re-treatment (Cycle 3), n (%) of FAS (Low Dose (N = 409)): 40 (9.8%) and 40 (9.7%) | Subjects with Only 3 re-treatment (Cycle 4), n (%) of FAS (Low Dose (N = 409)): 23 (5.6%) | Subjects with Only 4 re-treatment (Cycle 5), n (%) of FAS (Low Dose (N = 409)): 20 (4.9%) | Average (range) number of re-treatments per subject over 1-year follow-up (Low Dose Cohort): 0.8 (0-4) and 0.8 | Average total number of treatments per subject (Low Dose Cohort): 1.8 | Effect of antidepressant use on length of time between re-treatments (Low Dose Cohort): did not make much difference | FAS Subjects Dosed in C2, n (%) of FAS (Low Dose Cohort): 199 (48.7%) | FAS Subjects dosed in C3, n (%) of FAS (Low Dose Cohort): 83 (20.3%) | FAS Subjects dosed in C4, n (%) of FAS (Low Dose Cohort): 43 (10.5%) | FAS Subjects dosed in C5, n (%) of FAS (Low Dose Cohort): 20 (4.9%) | Time to re-treatment, Mean (SD) (dosed in Cycle 2, ATD use at baseline of previous cycle No): 97.2 (49.59) Days and 97.2 Days | Time to re-treatment, Mean (SD) (dosed in Cycle 2, ATD use at baseline of previous cycle Yes): 103.3 (56.26) Days and 103.3 Days | Time to re-treatment, Mean (SD) (dosed in Cycle 3, ATD use at baseline of previous cycle No): 88.4 (37.52) Days and 88.4 Days | Time to re-treatment, Mean (SD) (dosed in Cycle 3, ATD use at baseline of previous cycle Yes): 85.9 (32.14) Days and 85.9 Days | Time to re-treatment, Mean (SD) (dosed in Cycle 4, ATD use at baseline of previous cycle No): 73.0 (18.40) Days and 73.0 Days | Time to re-treatment, Mean (SD) (dosed in Cycle 4, ATD use at baseline of previous cycle Yes): 71.1 (17.21) Days and 71.1 Days | Time to re-treatment, Mean (SD) (dosed in Cycle 5, ATD use at baseline of previous cycle No): 61.9 (3.28) Days and 61.9 Days | Time to re-treatment, Mean (SD) (dosed in Cycle 5, ATD use at baseline of previous cycle Yes): 64.5 (10.09) Days and 64.5 Days | Re-treatment rates with and without pre-existing antidepressant therapy (in vivo): similar | Mean (range) number of total treatment courses (overall study population): 1.8 (1-5) | Patients not requiring additional treatment courses during their time in the study (overall study population): 43.7%
